Reference: PMC9772221 (Archives of biochemistry and biophysics, 2022)
Like-named read-outs stand apart in the source and are kept apart here. One block for each compound: values may come before it.

Assays:
PYCR1 [1] = conditions: read-out: Ki against PYCR1; cited from earlier work
PYCR3 [2] = target: T1, PYCR3 (Homo sapiens, UniProt Q53H96); test: Competitive; type: biochemical; conditions: pH 7.5, 26°C, NADH fixed at 175 μM
T1 sequence (Q53H96 11-274): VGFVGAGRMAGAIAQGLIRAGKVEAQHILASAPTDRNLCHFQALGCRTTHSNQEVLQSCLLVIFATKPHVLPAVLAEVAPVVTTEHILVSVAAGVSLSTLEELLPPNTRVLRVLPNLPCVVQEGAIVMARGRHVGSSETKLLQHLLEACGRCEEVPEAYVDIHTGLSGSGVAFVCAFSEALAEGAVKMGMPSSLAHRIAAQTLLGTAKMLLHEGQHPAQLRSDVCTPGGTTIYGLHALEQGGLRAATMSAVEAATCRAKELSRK

PYCR3 [3] = target: T1, PYCR3; test: Single-point inhibition screen of proline analogs against PYCR3; type: biochemical; conditions: proline analog 5 mM, L-P5C 200 μM, NADH 175 μM
PYCR3 [4] = conditions: read-out: Ki of L-proline against PYCR3, previous estimate; cited from earlier work
PYCR3 [5] = target: T1, PYCR3; test: Steady-state; type: biochemical; conditions: pH 7.5, 26°C
PYCR3 [6] = target: T1, PYCR3; test: Bi-substrate kinetic analysis of PYCR3, global fitting to bi bi models; type: biochemical; conditions: read-out: K^P5C, L-P5C on abscissa, L-P5C binds first, pH 7.5, 26°C
PYCR1 [7] = conditions: PYCR1, variable L-P5C, NADH = 175 μM; cited from earlier work
[8] = PYCR3, variable L-P5C, NADH = 175 μM
[9] = PYCR3, variable L-P5C, NADPH = 175 μM
[10] = PYCR3, variable coenzyme, L-P5C = 400 μM

Compound: O=CN1CCC[C@H]1C(=O)O [Compound 2, N-formyl-L-proline]
- Ki (PYCR1 [1]): 100 µM
- Ki (PYCR3 [2]; read-out: Ki, apparent competitive (with L-P5C) inhibition constant): 1200 ± 100 µM
- catalytic activity compared to the control assay with no inhibitor (PYCR3 [3]): ≤ 50%

Compound: O=C(O)[C@@H]1CCCN1 [Compound 17, L-proline]
- Ki (PYCR3 [2]; Ki, apparent competitive (with L-P5C) inhibition constant): 5700 ± 600 µM
- Ki (PYCR3 [4]): ~8000 µM

Compound: O=C(O)C1CCC=N1 [L-P5C, Δ^1-pyrroline-5-carboxylate]
- Km (PYCR3 [5]; [8]): 315 ± 65 µM
- kcat (PYCR3 [5]; [8]): 146 ± 17 s⁻¹
- Km (PYCR3 [5]; [9]): 64 ± 48 µM
- kcat (PYCR3 [5]; [9]): 48 ± 11 s⁻¹
- Kd (PYCR3 [6]; equilibrium compulsory ordered bi bi (Equation 2)): 1500 ± 700 µM
- Kd (PYCR3 [6]; steady-state compulsory ordered bi bi (Equation 3)): 110 ± 70 µM
- Km (PYCR1 [7]): 260 ± 63 µM
- kcat (PYCR1 [7]): 51 ± 13 s⁻¹

- Km (PYCR3 [5]; [10]): 192 ± 8 µM
- kcat (PYCR3 [5]; [10]): 235 ± 5 s⁻¹
Compound: NC(=O)C1=CN([C@@H]2O[C@H](COP(=O)(O)OP(=O)(O)OC[C@H]3O[C@@H](n4cnc5c(N)ncnc54)[C@H](O)[C@@H]3O)[C@@H](O)[C@H]2O)C=CC1 [NADH]

- Km (PYCR3 [5]; [10]): 45 ± 3 µM
- kcat (PYCR3 [5]; [10]): 70 ± 2 s⁻¹
Compound: NC(=O)C1=CN([C@@H]2O[C@H](COP(=O)(O)OP(=O)(O)OC[C@H]3O[C@@H](n4cnc5c(N)ncnc54)[C@H](OP(=O)(O)O)[C@@H]3O)[C@@H](O)[C@H]2O)C=CC1 [NADPH]
